The values below come from publication PMC10821286 (Marine Drugs, 2023).

Structures are written as SMILES. ≈ marks a conversion by molar mass, not a printed value. Where two headings read alike, the source gives them in different places. Where a SMILES comes first, the peptide text is derived from it. Bridges are numbered along the chain shown (N, C = ends).

In one series the test system is S. aureus E48. In words: microbe, parasite or virus in culture. Type of series: cell-based, Staphylococcus aureus. To be noted: microbroth dilution, 1 × 10^5 CFU/mL, 37 °C, 12–18 h, triplicate. The method, then:
(§1) Each experiment was performed in triplicate.

For another series, the system named is S. aureus ATCC 25923. Briefly: microbe, parasite or virus in culture. Type of series: cell-based, Staphylococcus aureus. To be noted: 1 × 10^5 CFU/mL, 37 °C, 12–18 h, triplicate. Here is the method:
as §1

Another series relates to S. aureus ATCC 43300. Briefly: microbe, parasite or virus in culture. Type of series: cell-based, Staphylococcus aureus. Conditions: 1 × 10^5 CFU/mL, 37 °C, 12–18 h, triplicate. The method, then:
as §1

For series [1], the system named is S. epidermidis G-81. Briefly: Time-killing curves. The class given is cell-based, Staphylococcus epidermidis. Conditions: S. epidermidis G-81, lincomycin 1× and 2× MIC (positive control), 24 h. Here is the method: Samples were collected at intervals of 0, 0.5, 1, 2, 4, 6, 8, 10, 12, and 24 h, respectively, and subjected to 10-fold serial dilutions followed by colony counting. PBS and Lincomycin were used as negative and positive controls. […] The results were presented as means ± standard deviation (SD).

The test system of series [2] is S. epidermidis ATCC 12228. Briefly: microbe, parasite or virus in culture. The class given is cell-based, Staphylococcus epidermidis. To be noted: 1 × 10^5 CFU/mL, 37 °C, 12–18 h, triplicate. The method, then:
as §1

The subject of series [3] is S. epidermidis G-81. In words: microbe, parasite or virus in culture. To be noted: 1 × 10^5 CFU/mL, 37 °C, 12–18 h, triplicate. The class given is cell-based, Staphylococcus epidermidis. The method, then: as §1
The test system of a further series is E. coli ATCC 25922. In words: MIC, microbroth dilution. Type of series: cell-based. To be noted: Escherichia coli, ATCC25922, 1 × 10^5 CFU/mL, 37 °C, 12–18 h, triplicate.
The test system of series [4] is S. pseudintermedius A2101. In words: organism not typed. Type of series: cell-based. Conditions: microbroth dilution, 1 × 10^5 CFU/mL, 37 °C, 12–18 h, triplicate. Here is the method:
as §1

In the next series the test system is S. hyicus NCTC 10350. Briefly: microbe, parasite or virus in culture. Type of series: cell-based. Conditions: 1 × 10^5 CFU/mL, 37 °C, 12–18 h, triplicate. The method, then: as §1
The next series is described as follows: Ion stability. The class given is physicochemical. To be noted: Zn2+, Mg2+, Ca2+, NH4+, K+, Na+; 37 °C, 4 h (method); read-out MIC against S. epidermidis. From the text:
The results were presented as means ± standard deviation (SD).

Another series concerns pepsin. To be noted: pepsin 3000 U/mg, pH 2.0, ratio 10:1, 37 °C, 4 h; read-out MIC against S. epidermidis, triplicate. Here is the method: (§2) Each experiment was performed in triplicate, and data were analyzed by the GraphPad Prism (version 8, USA, the software download from https://www.graphpad-prism.cn/, accessed on 7 June 2023).
The subject of the next series is trypsin. To be noted: trypsin 250 U/mg, pH 8.0, ratio 10:1, 37 °C, 4 h; read-out MIC against S. epidermidis, triplicate. Here is the method:
as §2

For series [5] the following is noted: 100 °C, one hour in PBS; read-out MIC against S. epidermidis. The method, then: as §2
The next series concerns mouse red blood cells. To be noted: 128 μg/mL; mouse erythrocytes, 37 °C, 1 h.
Series [6] concerns S. epidermidis G-81. In words: Murine subcutaneous abscess model of S. epidermidis infection. Type of series: in vivo, BALB/c mice. To be noted: mice, day three post-infection. Here is the method: The sterile saline was used for rapid washing twice.
The six-week-old BALB/c mice were divided randomly into five groups of nine animals: a normal saline control group, an infection group, three drug treatment groups (including AOD treatment in two groups and lincomycin treatment in one group). The hair removal solution was applied to the abdomen of each mouse in every group. One day later, each group, except for the control group, was subcutaneously injected with 0.1 mL of S. epidermidis G-81 at a concentration of 1 × 10^10 CFU/mL. […] In contrast, the infected group received an injection of 10 μL normal saline. The treatment duration was three days, and we continuously observed the weight and volume changes in the abscesses for 15 days. […] […] The results were presented as means ± standard deviation (SD).

For the next series, the system named is Hacat cells. To be noted: 24 h, cck-8.
The subject of a further series is S. agalactiae ATCC 13813. To be noted: microbroth dilution, 1 × 10^5 CFU/mL, 37 °C, 12–18 h, triplicate. Here is the method:
(§3) The strains to be tested were cultured overnight at 37 °C and then transferred to fresh medium until the logarithmic phase of growth was reached. […] The plate was then incubated at 37 °C for 12–18 h. The minimum concentration of no bacterial growth was recorded as the MIC value. Each experiment was performed in triplicate.

For series [7], the system named is S. epidermidis ATCC 35984. To be noted: microbroth dilution, 1 × 10^5 CFU/mL, 37 °C, 12–18 h, triplicate. The method, then:
as §3

Description for Hacat cells: Cell survival rate is calculated as follows: Survival rate (%) = (A/Acontrol) × 100.
Description for mouse red blood cells: Erythrocytes from mice of SPF grade were centrifuged at 2000 rpm for 5 min, followed by washes with saline solution three times. […] The mixture was then incubated at 37 °C for 1 h. Subsequently, it was centrifuged at 5000 rpm for 5 min and the supernatant was collected for measurement of the absorbance at OD540 nm. The 0.9% NaCl and 0.1% Triton X-100 were used as blank (A0) and positive (A100) controls, respectively [32]. The percentage of peptide hemolysis is calculated as follows: Hemolysis (%) = [(A − A0)/(A100 − A0)] × 100. Each experiment was performed in triplicate, and data were analyzed by the GraphPad Prism (version 8, USA, the software download from https://www.graphpad-prism.cn/, accessed on 7 June 2023).

Turning to `CCC[C@@H]1C[C@@H](C(=O)N[C@@H]([C@H]2O[C@H](SC)[C@H](O)[C@@H](O)[C@H]2O)[C@@H](C)O)N(C)C1` [Lincomycin, reference compound], the MIC in the series on S. aureus E48 (Staphylococcus aureus, read-out: MIC) was 1 µg/mL (≈ 2.46 µM); with S. aureus ATCC 25923 (Staphylococcus aureus, ATCC25923, microbroth dilution, read-out: MIC), 1 µg/mL (≈ 2.46 µM); in the series with S. aureus ATCC 43300 (Staphylococcus aureus, ATCC43300, microbroth dilution, read-out: MIC), over 64 µg/mL; in series [2] (Staphylococcus epidermidis, ATCC12228, microbroth dilution, read-out: MIC), 4 µg/mL (≈ 9.84 µM); with S. epidermidis G-81 [3] (Staphylococcus epidermidis, G81, microbroth dilution, read-out: MIC), 4 µg/mL (≈ 9.84 µM); in the series on E. coli ATCC 25922, 2 µg/mL (≈ 4.92 µM). Moreover, the MIC was determined as 32 µg/mL (≈ 78.7 µM) in series [4] (read-out: MIC) and 32 µg/mL (≈ 78.7 µM) in the series with S. hyicus NCTC 10350 (Staphylococcus hyicus, NCTC10350, microbroth dilution, read-out: MIC). In the series on S. epidermidis G-81 [1], the “course of bacterial counts” value is “gradual decrease”.
`CC[C@H](C)[C@@H]1NC(=O)[C@H](CO)NC(=O)[C@H](CCCNC(=N)N)NC(=O)[C@@H]2CSSC[C@@H](C(=O)N[C@@H](Cc3ccc(O)cc3)C(=O)N[C@@H](CCCNC(=N)N)C(=O)N[C@@H](CO)C(=O)O)NC(=O)[C@H]([C@@H](C)O)NC(=O)[C@@H]3CSSC[C@H](NC(=O)[C@H](CCC(N)=O)NC(=O)[C@H](Cc4ccc(O)cc4)NC(=O)[C@H](CCCNC(=N)N)NC(=O)[C@H](CC(N)=O)NC(=O)[C@H](Cc4c[nH]c5ccccc45)NC(=O)[C@@H]4CCCN4C(=O)[C@@H](NC(=O)CNC(=O)[C@H](Cc4ccccc4)NC(=O)CN)CSSC[C@H](NC(=O)[C@H](Cc4ccc(O)cc4)NC(=O)CNC(=O)CNC(=O)[C@H](CC(C)C)NC(=O)[C@H](CCCNC(=N)N)NC(=O)CNC1=O)C(=O)N[C@@H](C)C(=O)NCC(=O)N[C@@H](CO)C(=O)N[C@@H](CC(C)C)C(=O)N[C@@H](CCCNC(=N)N)C(=O)N[C@@H](CC(C)C)C(=O)N[C@@H]([C@@H](C)O)C(=O)N3)C(=O)N[C@@H](Cc1c[nH]cn1)C(=O)N[C@@H](CO)C(=O)N[C@@H](Cc1c[nH]cn1)C(=O)N2` [AOD] (H-GFGCPWNRYQCHSHCRSIGRLGGYCAGSLRLTCTCYRS-OH; disulfide 4-25, 11-33, 15-35): the MIC in the series on S. aureus E48 was 8 µg/mL (≈ 1.88 µM); against S. aureus ATCC 25923 (microbroth dilution), 16 µg/mL (≈ 3.75 µM); with S. aureus ATCC 43300 (microbroth dilution), 8 µg/mL (≈ 1.88 µM); in series [2] (microbroth dilution), 4 µg/mL (≈ 0.938 µM); in the series with S. epidermidis G-81 [3] (microbroth dilution), 4 µg/mL (≈ 0.938 µM); in series [4], 8 µg/mL (≈ 1.88 µM). Further, the MIC is 16 µg/mL (≈ 3.75 µM) in the series with S. hyicus NCTC 10350 (microbroth dilution), 4 µg/mL (≈ 0.938 µM) against S. agalactiae ATCC 13813 and 4 µg/mL (≈ 0.938 µM) in series [7]. The ion stability result in “Ion stability” is reported as “remarkable stability”. Moreover, the “MIC values after treatment with pepsin” value in the series on pepsin was “remained unchanged”. Moreover, the “MIC values after treatment with trypsin” value in the series on trypsin is reported as “remained unchanged”. Besides, the “antibacterial activity remaining after heating” value in series [5] amounted to 20%. In the series with mouse red blood cells, the hemolysis rate entry is listed as “less than 0.5%”. Further, the heart indices result in the series on S. epidermidis G-81 [6] is on record as “elevated only in the AOD-treated group”. Moreover, the figures for the cell survival rate entry in the series with Hacat cells (128 μg/mL) and in the series with Hacat cells (128 mg/mL (so in the source)) were “over 83%” and 98%, respectively.
